Laboratory results as given in patent US12036199B1 (Dynamic Biologics Inc., priority 2023, dated 2024).
Each block holds one compound with its values, some of them ahead of it.

Tests used:
[1] = In vitro stability of 10 μM DB104 incubated in fresh human plasma (HRMS / LC-MS detection of DB104, intermediates and L-DOPA); format: in vitro ADME; conditions: for degradation product of DB104 observed in human plasma: human plasma incubation of DB104; for half-life at 10 μM: human, fresh human plasma
Method: (§1) 10 μM DB104 (DB104 is identified above and is one of the Derivatives of the present invention) was incubated in fresh plasma and phosphate buffer saline (PBS) in multiple aliquots, and each aliquot was divided into two equal halves at the following time points: 0, 1, 2, 4, 6, 24, 48, 72, 96, 120, 144, 168, 192, 216, 240, and 264 h. The first half was quenched with ACN:MeOH containing 1% formic acid and analyzed on the high-resolution mass spectroscopy (HRMS) to detect DB104 and all other possible intermediates. Labetalol was used as internal standard (IS). The other half was quenched with perchloric acid and analyzed on an AB Sciex 7500 mass spectrometer to detect L-DOPA. Dopamine-d4 will be used as IS.
(§2) Possible intermediates structures from the steps above are as follows:
(§3) DB104 took about 4 h and 1-4 h to get fully solubilized in human plasma and PBS, respectively. This was evident by initial increase in peak area followed by degradation. All peak area ratios were normalized to the max peak area ratio value observed. […] DB104M2 was not observed in either human plasma or PBS.

[2] = In vitro stability of 10 μM DB104 incubated in phosphate buffer saline (PBS); format: physicochemical; conditions: for half-life at 10 μM: phosphate buffer saline (PBS)
Method: as §1, §2, §3

[3] = cited from earlier work
[4] = Phase III clinical trials; cited from earlier work
[5] = cited from earlier work; remark: listed apart in the source

degradation product of DB104 observed in human plasma [1]: observed | degradation product of DB104 observed in PBS ([2]; PBS incubation of DB104): observed
SMILES: CCCCCCCCCCCCOC(=O)C(N)Cc1ccc(O)c(O)c1 (stereo not shown) [DB104M3]

time to get fully solubilized in human plasma ([1]; human plasma, initial increase in peak area): about 4 h | half-life at 10 μM ([1]; 10 μM DB104, fresh human plasma, 0-264 h, read-out: In vitro half-life in human plasma (converted)): 13.1 ± 1.4 h | half-life at 10 μM ([1]; human plasma, summary estimate, read-out: in vitro half-life estimated, human plasma (converted)): ~12 h | time over which L-DOPA is formed at detectable amounts, PBS ([2]; L-DOPA formed from DB104 in PBS): up to 72 h | time to get fully solubilized in PBS ([2]; PBS, initial increase in peak area): 1 to 4 h | half-life at 10 μM ([2]; 10 μM DB104, PBS, 0-264 h, read-out: In vitro half-life in PBS (converted)): 12.4 ± 2.6 h | half-life at 10 μM ([2]; PBS, summary estimate, read-out: in vitro half-life estimated, PBS (converted)): ~12 h
SMILES: CCCCCCCCCCCCOC(=O)[C@@H](N)Cc1ccc(OC(=O)CCCCCCCCCCC)c(OC(=O)CCCCCCCCCCC)c1 [DB104, (S)-4-(2-amino-3-(dodecyloxy)-3-oxopropyl)-1,2-phenylene didodecanoate]

degradation product of DB104 observed in human plasma [1]: observed | degradation product of DB104 observed in PBS ([2]; PBS incubation of DB104): observed
SMILES: N[C@@H](Cc1ccc(O)c(O)c1)C(=O)O [Levodopa, (S)-2-amino-3-(3,4-dihydroxyphenyl)propanoic acid, reference compound]
Plasma half-life of levodopa alone [3]: ~0.833 h

SMILES: CCOC(=O)[C@@H](N)Cc1ccc(O)c(O)c1 [Etilevodopa]
efficacy compared with Levodopa [4]: less efficacious than Levodopa

SMILES: C[C@@](Cc1ccc(O)c(O)c1)(NN)C(=O)O [Carbidopa]
reduction of the amount of levodopa required to produce a given response ([5]; carbidopa administered with levodopa): 75%

SMILES: CCN(CC)C(=O)/C(C#N)=C/c1cc(O)c(O)c([N+](=O)[O-])c1 [entacapone]
increase of levodopa plasma exposure ([5]; 200 mg entacapone co-administered with levodopa/carbidopa): 35-40%

degradation product of DB104 observed in human plasma [1]: not observed | degradation product of DB104 observed in PBS ([2]; PBS incubation of DB104): not observed
SMILES: CCCCCCCCCCCC(=O)Oc1cc(CC(N)C(=O)O)ccc1O (stereo not shown) [DB104M2]

degradation product of DB104 observed in human plasma [1]: observed in PBS only | degradation product of DB104 observed in PBS ([2]; PBS incubation of DB104): observed in PBS only
SMILES: CCCCCCCCCCCC(=O)Oc1ccc(CC(N)C(=O)O)cc1OC(=O)CCCCCCCCCCC (stereo not shown) [DB104M1]

degradation product of DB104 observed in human plasma [1]: observed | degradation product of DB104 observed in PBS ([2]; PBS incubation of DB104): observed | rank of degradant in PBS ([2]; PBS incubation of DB104): major degradant
SMILES: CCCCCCCCCCCCOC(=O)C(N)Cc1ccc(O)c(OC(=O)CCCCCCCCCCC)c1 (stereo not shown) [DB104M4]
